# Measured values as given in patent US4918172A, “Anthracycline antibiotics” (Sanraku Incorporated, priority 1987, dated 1990).
# Experiments:
# Format in all cases: cell-based
# [1] = test system: mouse leukemia L1210 culture cells; experiment: inhibition of RNA synthesis in L1210 culture cells (14C-uridine uptake); conditions: 10% calf serum RPMI 1640, label added 15 minutes after compound, further 60 minutes at 37° C., read-out: 50% Inhibiting Concentration (IC50) RNA Synthesis Inhibition
# Procedure: (§1) Activity of inhibition propagation of mouse leukemia L1210 culture cells and of inhibition synthesis of nucleic acid in the cells:
# (§2) Then a solution of the compound of the present invention prepared as mentioned above was added to the medium in a different concentration. 15 minutes after the addition, ^14 C-uridine (0.05 μCi/ml) or ^14 C-thymidine (0.05 μCi/ml) was added and the medium was further incubated at 37° C. for an additional 60 minutes. A cold 10% trichloroacetic acid (TCA) was added to the reaction solution so that the reaction was stopped and the acid-insoluble substance was precipitated. This was washed twice with a cold 5% TCA and then dissolved in formic acid. Then the radioactivity of the resulting solution was measured, and the 50% uptake inhibiting concentration was obtained from the radioactivity uptake ratio relative to the control group.
# [2] = test system: mouse leukemia L1210 culture cells; experiment: inhibition of DNA synthesis in L1210 culture cells (14C-thymidine uptake); conditions: 10% calf serum RPMI 1640, label added 15 minutes after compound, further 60 minutes at 37° C., read-out: 50% Inhibiting Concentration (IC50) DNA Synthesis Inhibition
# Procedure: as §1, §2
# [3] = test system: mouse leukemia L1210 culture cells; experiment: inhibition of propagation (50% growth inhibiting concentration) of mouse leukemia L1210 culture cells; conditions: read-out: 50% Inhibiting Concentration (IC50) Cell Growth Inhibition
# Procedure: as §1
# L1210 cells (5×10^4 /ml) were inoculated in RPMI 1640 medium (Rose Wellberg Laboratory) containing 20% calf serum, and the compound of the present invention (as indicated in Table 1 below) was added thereto in a concentration of from 0.0005 to 50.0 μg/ml. Thus the cells were incubated in a CO2 incubator at 37° C. for 48 hours, and the 50% growth inhibiting concentration relative to the control group was obtained. The compound of the present invention was dissolved in M/50 acetic acid (pH 3.0) in a concentration of […] and then diluted with Dulbecco PBS (-) (manufactured by Nissui Pharmaceutical Co.), before being added to the medium.
# [4] = L1210 cells, RPMI 1640 with 20% calf serum, 37° C., 48 hours
SMILES,IC50 [1],IC50 [2],"IC50 [3, 4]","IC50 ([3]; L1210, 48 h)"
CCC1(O)CC(OC2CC(N)C(OC3CCC(O)C(C)O3)C(C)O2)c2c(O)c3c(c(O)c2C1O)C(=O)c1cccc(O)c1C3=O (stereo not drawn) [CG15A],3 µg/mL,1.2 µg/mL,0.002 µg/mL,–
CCC1(O)CC(OC2CC(N)C(OC3CC(O)C(O)C(C)O3)C(C)O2)c2c(O)c3c(c(O)c2C1O)C(=O)c1cccc(O)c1C3=O (stereo not drawn) [CG15B],2.5 µg/mL,4.6 µg/mL,–,0.04 µg/mL
CCC1(O)CC(OC2CC(N)C(OC3CCC(O)C(C)O3)C(C)O2)c2c(O)c3c(c(O)c2C1C(=O)OC)C(=O)c1cccc(O)c1C3=O (stereo not drawn) [CG17A],1.1 µg/mL,3.3 µg/mL,0.5 µg/mL,–
CCC1(O)CC(OC2CC(N)C(OC3CC(O)C(O)C(C)O3)C(C)O2)c2c(O)c3c(c(O)c2C1C(=O)OC)C(=O)c1cccc(O)c1C3=O (stereo not drawn) [CG17B],2.3 µg/mL,10 µg/mL,1.4 µg/mL,–
CCC1(O)CC(OC2CC(N)C(OC3CCC(O)C(C)O3)C(C)O2)c2c(O)c3c(c(O)c2C1C(=O)OC)C(=O)c1cccc(OC)c1C3=O (stereo not drawn) [CG19A],1.3 µg/mL,4.8 µg/mL,1 µg/mL,–
CCC1(O)CC(OC2CC(N)C(OC3CC(O)C(O)C(C)O3)C(C)O2)c2c(O)c3c(c(O)c2C1C(=O)OC)C(=O)c1cccc(OC)c1C3=O (stereo not drawn) [CG19B],10 µg/mL,10 µg/mL,–,–
CC1OC(OC2C(N)CC(OC3CC(O)(C(C)O)Cc4c(O)c5c(c(O)c43)C(=O)c3c(O)cccc3C5=O)OC2C)CCC1O (stereo not drawn) [CG20A],1.2 µg/mL,1.2 µg/mL,–,–
CC1OC(OC2C(N)CC(OC3CC(O)(C(C)O)Cc4c(O)c5c(c(O)c43)C(=O)c3c(O)cccc3C5=O)OC2C)CC(O)C1O (stereo not drawn) [CG20B],5 µg/mL,10 µg/mL,–,–
CCC1(O)CC(OC2CC(N(C)C)C(OC3CCC(O)C(C)O3)C(C)O2)c2c(O)c3c(c(O)c2C1O)C(=O)c1cccc(O)c1C3=O (stereo not drawn) [CG21A],0.18 µg/mL,0.38 µg/mL,–,–
CCC1(O)CC(OC2CC(NC)C(OC3CCC(O)C(C)O3)C(C)O2)c2c(O)c3c(c(O)c2C1O)C(=O)c1cccc(O)c1C3=O (stereo not drawn) [CG22A],1.4 µg/mL,0.87 µg/mL,–,–
CCC1(O)CC(OC2CC(NC)C(OC3CC(O)C(O)C(C)O3)C(C)O2)c2c(O)c3c(c(O)c2C1O)C(=O)c1cccc(O)c1C3=O (stereo not drawn) [CG22B],10 µg/mL,5 µg/mL,–,–
